Measurements published in patent publication US11214594B2, “Antimicrobial peptide having synergistic antibacterial effect with antibiotics on multidrug resistant bacteria, and use thereof” (priority 2016, dated 2022).
Values after ≈ are worked out from the molar mass of the structure shown. Where a SMILES comes first, the peptide text is derived from it. [ ]: non-standard residue; d: D form.

What was measured:
E. coli = assay: MIC of antibiotic during combined treatment with antimicrobial peptide; type: cell-based, Escherichia coli; conditions: for Antibiotic MIC, Erythromycin / Antibiotic MIC, Linezolid / Antibiotic MIC, Vancomycin: E. coli
In short: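 Using MH broth, we determined combination MICs by titrating the antibiotic into wells and then repeating under the reverse dilution scheme.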

A. baumannii [1] = assay: MIC of antimicrobial peptide during combined treatment with antibiotic; type: cell-based, Acinetobacter baumannii
In short: (§1)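 Broth microdilution in MH medium; strains were diluted to 2×10^6 CFU per ml before plating. Peptide was serially diluted stepwise at 2:1 starting from its MIC, and MH-diluted antibiotic was then added to determine MIC. The reversed arrangement was also tested.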

MDRAB 12035 [2] = assay: as above; type: cell-based, Acinetobacter baumannii
In short: as §1

P. aeruginosa = assay: microbe, parasite or virus in culture; type: cell-based, Pseudomonas aeruginosa
In short: (§2)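 Broth microdilution in MH medium: strains diluted to 2×10^6 CFU were mixed with equal volumes of twofold serial peptide dilutions in MH medium. MIC was taken as the lowest peptide concentration preventing bacterial growth.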

MDRST 8007 = assay: Minimal inhibitory concentration (MIC), single agent; type: cell-based, Salmonella typhimurium; conditions: agent alone
In short: as §2

S. epidermidis = assay: microbe, parasite or virus in culture; type: cell-based, Staphylococcus epidermidis
In short: as §2

A. baumannii [3] = assay: microbe, parasite or virus in culture; type: cell-based, Acinetobacter baumannii
In short: as §2

MDRAB 12035 [4] = assay: microbe, parasite or virus in culture; type: cell-based, Acinetobacter baumannii
In short: as §2

MDRAB 12035 [5] = assay: MIC of antibiotic during combined treatment with antimicrobial peptide; type: cell-based, Acinetobacter baumannii; conditions: peptide treatment concentration 1 μg/ml
In short: as §1

[6] = erythromycin 4 μg/ml (Conc./MIC 1/8)
[7] = erythromycin 8 μg/ml (Conc./MIC 1/4)
[8] = erythromycin 16 μg/ml (Conc./MIC 1/2)
[9] = erythromycin 32 μg/ml (Conc./MIC 1)
[10] = vancomycin 512 μg/ml (Conc./MIC 1/2)
[11] = vancomycin 1024 μg/ml (Conc./MIC 1)

With `CC[C@H](C)[C@H](NC(=O)[C@H](CCCCN)NC(=O)[C@H](Cc1c[nH]c2ccccc12)NC(=O)[C@@H](N)CCCNC(=N)N)C(=O)N[C@@H](Cc1ccccc1)C(=O)N[C@@H](CCCCN)C(=O)N[C@@H](CCCCN)C(=O)N[C@H](C(=O)N[C@H](CCCCN)C(=O)N[C@@H](CCCCN)C(=O)N[C@@H](CC(C)C)C(=O)N[C@@H](CC(C)C)C(=O)N[C@@H](Cc1c[nH]cn1)C(=O)N[C@@H](CO)C(=O)N[C@@H](Cc1ccccc1)C(=O)N[C@@H](CCCCN)C(=O)N[C@@H](CCCCN)C(=O)N[C@@H](Cc1ccccc1)C(N)=O)[C@@H](C)CC` [PapMA-15, RWK IFK KIk KLL HSF KKF-NH2] (H-RWKIFKKI[dK]KLLHSFKKF-NH2; N-terminus assumed) the “Synergistic effect of antibacterial activity with existing antibiotics compared with PapMA-1” value (E. coli; E. coli and MDREC1229) was “level similar to that of the PapMA-1 peptide”, the “Antibiotic MIC, Erythromycin” value (E. coli; erythromycin combined with peptide at 1 μg/ml) was 64 µg/mL and the “Antibiotic MIC, Erythromycin” value (E. coli; erythromycin combined with peptide at 2 μg/ml) was 32 µg/mL. The “Antibiotic MIC, Erythromycin” value (E. coli; erythromycin combined with peptide at 4 μg/ml) was 16 µg/mL, the “Antibiotic MIC, Erythromycin” value (E. coli; erythromycin combined with peptide at 6 μg/ml) was 2 µg/mL and the “Antibiotic MIC, Erythromycin” value (E. coli; erythromycin combined with peptide at 8 μg/ml) was 1 µg/mL. For the same molecule, the “Antibiotic MIC, Erythromycin” value (E. coli; erythromycin combined with peptide at 16 μg/ml) was 0.25 µg/mL, the “Antibiotic MIC, Erythromycin” value (E. coli; erythromycin combined with peptide at 32 μg/ml) was 0 µg/mL and the “Antibiotic MIC, Erythromycin” value (E. coli; erythromycin combined with peptide at 64 μg/ml) was 0 µg/mL. For the same molecule, the “Antibiotic MIC, Linezolid” value (E. coli; linezolid combined with peptide at 1 μg/ml) was over 128 µg/mL, the “Antibiotic MIC, Linezolid” value (E. coli; linezolid combined with peptide at 2 μg/ml) was 128 µg/mL and the “Antibiotic MIC, Linezolid” value (E. coli; linezolid combined with peptide at 4 μg/ml) was 32 µg/mL. The “Antibiotic MIC, Linezolid” value (E. coli; linezolid combined with peptide at 6 μg/ml) was 16 µg/mL, the “Antibiotic MIC, Linezolid” value (E. coli; linezolid combined with peptide at 8 μg/ml) was 16 µg/mL and the “Antibiotic MIC, Linezolid” value (E. coli; linezolid combined with peptide at 16 μg/ml) was 8 µg/mL. For the same molecule, the “Antibiotic MIC, Linezolid” value (E. coli; linezolid combined with peptide at 32 μg/ml) was 0 µg/mL, the “Antibiotic MIC, Linezolid” value (E. coli; linezolid combined with peptide at 64 μg/ml) was 0 µg/mL and the “Antibiotic MIC, Vancomycin” value (E. coli; vancomycin combined with peptide at 1 μg/ml) was over 128 µg/mL. The “Antibiotic MIC, Vancomycin” value (E. coli; vancomycin combined with peptide at 2 μg/ml) was over 128 µg/mL, the “Antibiotic MIC, Vancomycin” value (E. coli; vancomycin combined with peptide at 4 μg/ml) was over 128 µg/mL and the “Antibiotic MIC, Vancomycin” value (E. coli; vancomycin combined with peptide at 6 μg/ml) was 64 µg/mL. For the same molecule, the “Antibiotic MIC, Vancomycin” value (E. coli; vancomycin combined with peptide at 8 μg/ml) was 32 µg/mL, the “Antibiotic MIC, Vancomycin” value (E. coli; vancomycin combined with peptide at 16 μg/ml) was 16 µg/mL and the “Antibiotic MIC, Vancomycin” value (E. coli; vancomycin combined with peptide at 32 μg/ml) was 0 µg/mL. For the same molecule, the “Antibiotic MIC, Vancomycin” value (E. coli; vancomycin combined with peptide at 64 μg/ml) was 0 µg/mL, the “Peptide MIC during treatment with antibiotic” value (A. baumannii [1]; [6]) was 4 µg/mL and the “Peptide MIC during treatment with antibiotic” value (A. baumannii [1]; [7]) was 4 µg/mL. The “Peptide MIC during treatment with antibiotic” value (A. baumannii [1]; [8]) was 4 µg/mL, the “Peptide MIC during treatment with antibiotic” value (A. baumannii [1]; [9]) was 0 µg/mL and the “Peptide MIC during treatment with antibiotic” value (A. baumannii [1]; linezolid 32 μg/ml (Conc./MIC 1/8)) was 8 µg/mL. For the same molecule, the “Peptide MIC during treatment with antibiotic” value (A. baumannii [1]; linezolid 64 μg/ml (Conc./MIC 1/4)) was 4 µg/mL, the “Peptide MIC during treatment with antibiotic” value (A. baumannii [1]; linezolid […] (Conc./MIC 1)) was 0 µg/mL and the “Peptide MIC during treatment with antibiotic” value (A. baumannii [1]; linezolid […] (Conc./MIC 1/2)) was 2 µg/mL. The “Peptide MIC during treatment with antibiotic” value (A. baumannii [1]; [10]) was 0.25 µg/mL, the “Peptide MIC during treatment with antibiotic” value (A. baumannii [1]; [11]) was 0 µg/mL and the “Peptide MIC during treatment with antibiotic” value (A. baumannii [1]; vancomycin […] (Conc./MIC 1/4)) was 0.5 µg/mL. For the same molecule, the “Peptide MIC during treatment with antibiotic” value (A. baumannii [1]; vancomycin […] (Conc./MIC 1/8)) was 2 µg/mL, the “Peptide MIC during treatment with erythromycin” value (MDRAB 12035 [2]; [6]) was 4 µg/mL and the “Peptide MIC during treatment with erythromycin” value (MDRAB 12035 [2]; [7]) was 4 µg/mL. The “Peptide MIC during treatment with erythromycin” value (MDRAB 12035 [2]; [8]) was 4 µg/mL, the “Peptide MIC during treatment with erythromycin” value (MDRAB 12035 [2]; [9]) was 0 µg/mL and the “Peptide MIC during treatment with linezolid” value (MDRAB 12035 [2]; linezolid 64 μg/ml (Conc./MIC 1/8)) was 4 µg/mL. The “Peptide MIC during treatment with linezolid” value (MDRAB 12035 [2]; linezolid 512 μg/ml (Conc./MIC 1)) was 0 µg/mL, the “Peptide MIC during treatment with linezolid” value (MDRAB 12035 [2]; linezolid […] (Conc./MIC 1/2)) was 1 µg/mL and the “Peptide MIC during treatment with linezolid” value (MDRAB 12035 [2]; linezolid […] (Conc./MIC 1/4)) was 4 µg/mL. For the same molecule, the “Peptide MIC during treatment with vancomycin” value (MDRAB 12035 [2]; [10]) was 2 µg/mL, the “Peptide MIC during treatment with vancomycin” value (MDRAB 12035 [2]; [11]) was 1 µg/mL and the “Peptide MIC during treatment with vancomycin” value (MDRAB 12035 [2]; vancomycin […] (Conc./MIC 1/4)) was 2 µg/mL. The “Peptide MIC during treatment with vancomycin” value (MDRAB 12035 [2]; vancomycin […] (Conc./MIC 1/8)) was 4 µg/mL, the “Minimal inhibitory concentration MIC” value (P. aeruginosa) was 32 µg/mL (≈ 13.5 µM) and the “Minimal inhibitory concentration MIC” value (MDRST 8007) was 64 µg/mL (≈ 26.9 µM). The “Minimal inhibitory concentration MIC” value (S. epidermidis) was over 128 µg/mL, the “Minimal inhibitory concentration MIC” value (A. baumannii [3]) was 32 µg/mL (≈ 13.5 µM) and the “Peptide MIC, peptide alone” value (A. baumannii [3]) was 32 µg/mL. For the same molecule, the “Antibacterial activity relative to PapMA-1” value (A. baumannii [3]; A. baumannii and S. typhimurium) was “at least twice as high”, the “Minimal inhibitory concentration MIC” value (MDRAB 12035 [4]) was 32 µg/mL (≈ 13.5 µM) and the “Peptide MIC, peptide alone” value (MDRAB 12035 [4]) was 32 µg/mL. For the same molecule, the “Erythromycin MIC during combined treatment with peptide” value (MDRAB 12035 [5]) was 32 µg/mL, the “Linezolid MIC during combined treatment with peptide” value (MDRAB 12035 [5]) was over 128 µg/mL and the “Vancomycin MIC during combined treatment with peptide” value (MDRAB 12035 [5]) was over 128 µg/mL.
